In patent US12280090B2, “Antimicrobial peptides” (priority 2018, dated 2025):
Converted amounts (≈) assume the structure as drawn. Where two headings read alike, the source gives them in different places. Ends that are not written are not given here. Peptide text beside a SMILES is read from it.

Columns and labels:
Assay type in all cases: cell-based
[1] = tested on: Staphylococcus aureus—ATCC 29213 “wild type”
Procedure: (§1) Independent experiments were conducted with different strains of Staphylococcus aureus—ATCC 29213 “wild type”; and Staphylococcus aureus—Methicillin resistant Staphylococcus aureus.
(§2) The ATCC (American Type Culture Collection) strains received from Cedarlane. Multi drug resistant (MDR) strains, as clinical isolates, were received from the laboratory of Dr. Linda Hoang.
(§3) Putative antimicrobial peptides were synthesized by GeneScript. A-list antimicrobial peptides re-synthesized by GeneScript. P2_CCH, P5_CCH, and P5_CCH_A19K were each synthesized under two conditions: standard synthesis using TFA, and the other with TFA-removal using acetate as a counter-ion. A MIC method, adapted for use with cationic antimicrobial peptides, was used to evaluate MIC antimicrobial activity (Hancock 1999).
(§4) The following data are presented to show the activity (MIC/MBC in μg/mL) of certain antimicrobial peptides described herein relative to a modified/synthetic version having a specified substitution. While data presented in tables above may be presented again, or may be represented in data provided in the tables below, such duplication is believed to assist the reader in readily noting comparisons. Different Run Numbers noted in the following tables denotes experiments conducted on different days, with each run reflecting multiple n values.

[2] = tested on: Salmonella Enteritidis
From the text: as §3, §4

[3] = tested on: Escherichia coli: ATCC 9723H; settings: ATCC 9723
In short: (§5)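 MIC and MBC were run by broth microdilution adapted from Hancock cationic-AMP and CLSI methods, in Mueller Hinton broth (+5% lysed horse blood for S. pyogenes) at about 5×10^5 CFU/mL. Peptides came from two-fold 10× stocks (2560–5 μg/mL) and were incubated 16-24 h at 37 °C. For MBC, the MIC well and two more-concentrated wells were plated on MHA for 24 h at 37 °C.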

[4] = tested on: Mycobacterium smegmatis (MC^2155); settings: Mycobacterium (MC^2155)
In short: as §5

[5] = tested on: Pseudomonas aeruginosa: ATCC 10148; settings: ATCC 10148
In short: as §5

[6] = tested on: Staphylococcus aureus: ATCC 6538P; settings: ATCC 6538
In short: as §5

[7] = tested on: Streptococcus pyogenes: unknown strain, hospital isolate; settings: unknown strain, hospital isolate
In short: as §5

[8] = tested on: Escherichia coli—Carbapenemase-producing organism; New-Dehli Metallobetalactamase
Procedure: (§6) Independent experiments were conducted with four strains of E. coli, including ATCC E. coli (Escherichia coli—ATCC 25922 “wild type”); ESBL E. coli (Escherichia coli—Extended spectrum beta-lactamase); CPO E. coli (KPC) (Escherichia coli—Carbapenemase-producing organism; Klebsiella pneumoniae carbapenemase); and CPO E. coli (NDM) (Escherichia coli—Carbapenemase-producing organism; New-Dehli Metallobetalactamase).
as §2, §3, §4

[9] = tested on: Salmonella Heidelberg (MDR)
From the text: as §2, §3, §4

[10] = tested on: Escherichia coli—ATCC 25922 “wild type”
Procedure: as §6, §2, §3, §4

[11] = tested on: Escherichia coli—Carbapenemase-producing organism; Klebsiella pneumoniae carbapenemase
Procedure: as §6, §2, §3, §4

[12] = tested on: Escherichia coli—Extended spectrum beta-lactamase
Procedure: as §6, §2, §3, §4

[13] = tested on: Methicillin resistant Staphylococcus aureus; settings: Methicillin resistant
Procedure: as §1, §2, §3, §4

[14] = Salmonella Heidelberg (MDR), Run No. 2
[15] = Salmonella Heidelberg (MDR), Run No. 3

Compound: CC[C@H](C)[C@H](NC(=O)[C@H](CCCCN)NC(=O)[C@H](CCC(=O)O)NC(=O)[C@H](CCCCN)NC(=O)[C@H](CO)NC(=O)[C@H](CCCCN)NC(=O)[C@H](CCCNC(=N)N)NC(=O)[C@H](Cc1ccccc1)NC(=O)[C@H](Cc1ccccc1)NC(=O)[C@H](CC(=O)O)NC(=O)CNC(=O)[C@H](CC(C)C)NC(=O)[C@@H](N)CC(C)C)C(=O)NCC(=O)N[C@@H](CCCCN)C(=O)N[C@@H](CCC(=O)O)C(=O)N[C@@H](Cc1ccccc1)C(=O)N[C@@H](CCCCN)C(=O)N[C@@H](CCCNC(=N)N)C(=O)N[C@H](C(=O)N[C@H](C(=O)N[C@@H](CCC(N)=O)C(=O)N[C@@H](CCCNC(=N)N)C(=O)N[C@H](C(=O)N[C@@H](CCCCN)C(=O)N[C@@H](CC(=O)O)C(=O)N[C@@H](Cc1ccccc1)C(=O)N[C@@H](CC(C)C)C(=O)N[C@@H](CCCNC(=N)N)C(=O)N[C@@H](CC(N)=O)C(=O)N[C@@H](CC(C)C)C(=O)N[C@H](C(=O)N1CCC[C@H]1C(=O)N[C@@H](CCCNC(=N)N)C(=O)N[C@H](C(=O)N[C@@H](CCC(=O)O)C(=O)N[C@@H](CO)C(=O)O)[C@@H](C)O)C(C)C)[C@@H](C)CC)C(C)C)[C@@H](C)CC [LL-37, reference compound]
- Minimum Inhibitory Concentration (MIC) ([1]; S. aureus ATCC 29213, Gram positive): 128+ ug/mL
- Minimum Inhibitory Concentration (MIC) ([2]; S. enterica spp. Enteritidis, Gram negative): 64+ ug/mL

Compound: IQRLPVINMLKLWKLELEII [Peptide P13_CCH]
- MBC [3]: >256 µg/mL
- MIC [3]: >256 µg/mL
- MBC [4]: >256 µg/mL
- MIC [4]: >256 µg/mL
- MBC [5]: >256 µg/mL
- MIC [5]: >256 µg/mL
- MBC [6]: >256 µg/mL
- MIC [6]: >256 µg/mL
- MBC [7]: >256 µg/mL
- MIC [7]: >256 µg/mL
- MIC [8]: 256 µg/mL
- MIC ([1]; ATCC 29213): 128 µg/mL
- MIC [2]: 16 µg/mL
- MIC [9]: 32 µg/mL
- MIC [9, 14]: ~32? μg/mL
- MIC [9, 15]: ~32? μg/mL

Compound: ALVAKIQKFPVFNTLKLCKLELEII [Peptide P11_CCH]
- MBC [3]: >256 µg/mL
- MIC [3]: >256 µg/mL
- MBC [4]: >256 µg/mL
- MIC [4]: >256 µg/mL
- MBC [5]: >256 µg/mL
- MIC [5]: >256 µg/mL
- MBC [6]: >256 µg/mL
- MIC [6]: >256 µg/mL
- MBC [7]: >256 µg/mL
- MIC [7]: >256 µg/mL
- MIC ([1]; ATCC 29213): 64 µg/mL
- MIC [2]: 32 µg/mL
- MIC [9]: 128 µg/mL

Compound: ALVAKIQKFPVFNTLKLCKLKLRII [P11_CCH_E21K_E23R]
- MBC [10]: 32 µg/mL
- MBC [8]: 128 µg/mL
- MIC ([1]; ATCC 29213): 128 µg/mL
- MIC [2]: 64 µg/mL
- MIC [9]: 128 µg/mL

Compound: CC[C@H](C)[C@H](NC(=O)[C@H](CCCCN)NC(=O)[C@H](CCCCN)NC(=O)CNC(=O)[C@@H](NC(=O)[C@@H](NC(=O)[C@H](CCCCN)NC(=O)[C@@H](NC(=O)[C@@H](NC(=O)[C@H](CCC(=O)O)NC(=O)[C@H](Cc1c[nH]c2ccccc12)NC(=O)[C@H](CC(C)C)NC(=O)CN)[C@@H](C)O)[C@@H](C)CC)[C@@H](C)O)[C@@H](C)O)C(=O)N[C@@H](C)C(=O)N[C@@H](CC(C)C)C(=O)N[C@@H](CC(N)=O)C(=O)N[C@@H](CC(C)C)C(=O)N[C@@H](CC(C)C)C(=O)N[C@@H](CC(=O)O)C(=O)N[C@@H](CCCCN)C(=O)N[C@H](C(=O)N[C@@H](CCCCN)C(=O)N[C@@H](CS)C(=O)N[C@@H](CCCCN)C(=O)N[C@H](C(=O)N[C@@H](C)C(=O)NCC(=O)NCC(=O)N[C@@H](CS)C(=O)N1CCC[C@H]1C(=O)N1CCC[C@H]1C(=O)O)[C@@H](C)CC)[C@@H](C)CC [Peptide P6_CCH_S12K] (H-GLWETIKTTGKKIALNLLDKIKCKIAGGCPP-OH; N-terminus and C-terminus assumed)
- MBC [10]: 4 µg/mL (≈ 1.21 µM)
- MIC [10]: 4 µg/mL (≈ 1.21 µM)
- Minimum Inhibitory Concentration (MIC) [10]: 4 µg/mL
- Minimum Inhibitory Concentration (MIC) [11]: 4 µg/mL
- Minimum Inhibitory Concentration (MIC) [8]: 4 to 8 µg/mL
- MBC [12]: 4 µg/mL (≈ 1.21 µM)
- MIC [12]: 4 µg/mL (≈ 1.21 µM)
- Minimum Inhibitory Concentration (MIC) [12]: 4 µg/mL
- Minimum Inhibitory Concentration (MIC) [13]: 64 to 128 µg/mL
- Minimum Inhibitory Concentration (MIC) ([1]; ATCC 29213): 64 to 128 µg/mL
- Minimum Inhibitory Concentration (MIC) [2]: 16 to 32 µg/mL
- Minimum Inhibitory Concentration (MIC) [9]: 16 to 32 µg/mL

Compound: CC[C@H](C)[C@H](NC(=O)[C@H](Cc1ccccc1)NC(=O)[C@@H]1CCCN1C(=O)[C@H](CC(C)C)NC(=O)[C@@H](N)Cc1ccccc1)C(=O)N[C@@H](C)C(=O)N[C@@H](CCCNC(=N)N)C(=O)N[C@@H](CC(C)C)C(=O)N[C@@H](C)C(=O)N[C@@H](C)C(=O)N[C@@H](CCCCN)C(=O)N[C@H](C(=O)N[C@@H](Cc1ccccc1)C(=O)N1CCC[C@H]1C(=O)N[C@@H](CO)C(=O)N[C@H](C(=O)N[C@H](C(=O)N[C@@H](CS)C(=O)N[C@@H](CO)C(=O)N[C@H](C(=O)N[C@H](C(=O)N[C@@H](CCCCN)C(=O)N[C@@H](CCCCN)C(=O)N[C@@H](CS)C(=O)O)[C@@H](C)O)C(C)C)[C@@H](C)CC)[C@@H](C)CC)C(C)C [Ran-4] (H-FLPFIARLAAKVFPSIICSVTKKC-OH; N-terminus and C-terminus assumed)
- Minimum Inhibitory Concentration (MIC) [10]: 2 to 4 µg/mL
- Minimum Inhibitory Concentration (MIC) [11]: 4 to 8 µg/mL
- Minimum Inhibitory Concentration (MIC) [8]: 4 to 8 µg/mL
- Minimum Inhibitory Concentration (MIC) [12]: 4 to 8 µg/mL
- Minimum Inhibitory Concentration (MIC) [13]: 64 to 128 µg/mL
- Minimum Inhibitory Concentration (MIC) ([1]; ATCC 29213): 64 to 128 µg/mL
- Minimum Inhibitory Concentration (MIC) [2]: 16 to 32 µg/mL
- Minimum Inhibitory Concentration (MIC) [9]: 16 to 32 µg/mL

Compound: IQRLPVIKMLKLWKLELKII [P13_CCH_N8K_E18K]
- MIC [10]: 32 µg/mL
- MIC [11]: 64 µg/mL
- MIC ([8]; CPO E. coli (NDM), Run No. 4): ~64? μg/mL
- MIC ([8]; CPO E. coli (NDM), Run No. 5): ~64? μg/mL
- MIC ([1]; ATCC 29213): 256 µg/mL
- MIC [2]: 16 µg/mL
- MIC [9]: 32 µg/mL
- MIC [9, 14]: ~16? μg/mL
- MIC [9, 15]: ~16? μg/mL

Compound: CC[C@H](C)[C@H](NC(=O)[C@@H](NC(=O)[C@@H]1CCCN1C(=O)[C@H](Cc1ccccc1)NC(=O)[C@@H](N)Cc1ccccc1)[C@@H](C)CC)C(=O)N[C@@H](C)C(=O)N[C@@H](CCCNC(=N)N)C(=O)N[C@@H](CC(C)C)C(=O)N[C@@H](C)C(=O)N[C@@H](C)C(=O)N[C@@H](CCCCN)C(=O)N[C@H](C(=O)N[C@H](C(=O)N1CCC[C@H]1C(=O)N[C@@H](CO)C(=O)N[C@@H](CC(C)C)C(=O)N[C@H](C(=O)N[C@@H](CS)C(=O)N[C@@H](C)C(=O)N[C@H](C(=O)N[C@H](C(=O)N[C@@H](CCCCN)C(=O)N[C@@H](CCCCN)C(=O)N[C@@H](CS)C(=O)O)[C@@H](C)O)C(C)C)C(C)C)[C@@H](C)CC)C(C)C [Peptide P5_CCH] (H-FFPIIARLAAKVIPSLVCAVTKKC-OH; N-terminus and C-terminus assumed)
- MBC [3]: 32 µg/mL (≈ 12.4 µM)
- MIC [3]: 16 µg/mL (≈ 6.18 µM)
- MBC [4]: >256 µg/mL
- MIC [4]: 2 µg/mL (≈ 0.772 µM)
- MBC [6]: 16 µg/mL (≈ 6.18 µM)
- MIC [6]: 4 µg/mL (≈ 1.54 µM)
- MBC [7]: 128 µg/mL (≈ 49.4 µM)
- MIC [7]: 128 µg/mL (≈ 49.4 µM)
- Minimum Inhibitory Concentration (MIC) [10]: 4 to 16 µg/mL
- Minimum Inhibitory Concentration (MIC) [11]: 4 to 16 µg/mL
- Minimum Inhibitory Concentration (MIC) [8]: 4 to 32 µg/mL
- Minimum Inhibitory Concentration (MIC) [12]: 8 to 32 µg/mL
- Minimum Inhibitory Concentration (MIC) [13]: 2 to 8 µg/mL
- Minimum Inhibitory Concentration (MIC) ([1]; ATCC 29213): 4 to 8 µg/mL
- Minimum Inhibitory Concentration (MIC) [2]: 64 to 128 µg/mL
- Minimum Inhibitory Concentration (MIC) [9]: 32 to 128 µg/mL
